Non-standard residues stand in square brackets, D forms with d. No end group written: not given here. Cit = NC(=O)NCCC[C@H](N)C(=O)O
System: autoantibodies against cit-4 (anti-citrullinated SETDB1 antibody)
Assay: indirect ELISA of autoantibodies against biotin-conjugated citrullinated short polypeptides in serum
Type: binding, human
Experimental: The autoantibody expression levels of the citrulline markers were detected using an indirect ELISA method. In short, biotin-conjugated short polypeptides were first coated onto PABC plates at a concentration of 50 ng/well. After coating, serum from 24 rheumatoid arthritis (RA) patients and 24 healthy subjects (HC) were diluted 10-fold as primary antibodies and incubated for 30 minutes. HRP-labeled goat anti-human IgG (GAH-HRP) was used as secondary antibody, incubation was performed for 30 minutes, and color development and reading were finally carried out.
The expression level of citrulline marker autoantibodies in patients with rheumatoid arthritis was detected using an indirect ELISA method (see Example 1 for details). In addition, anti-citrullinated peptide antibody (CCP2) was used as a control. […]
The cit-4 antibody level was detected in a CCP2-negative patient population using an indirect ELISA method (see Example 1 for details).
The levels of citrullinated SETDB1 autoantibodies in the serum of patients with different autoimmune diseases (RA rheumatoid arthritis, SLE systemic lupus erythematosus, PSS primary Sjögren's syndrome, and SSc scleroderma) were detected using an indirect ELISA method (see Example 1 for details). […]

For “NPLLVPLLYDFXXMTAXXXVNXK (NPLLVPLLYDF[Cit][Cit]MTA[Cit][Cit][Cit]VN[Cit]K; also: conjugated with biotin) [cit-4]”, the “level of autoantibodies in rheumatoid arthritis” value (Example 1, Fig. 1A, serum of 24 RA patients vs 24 healthy subjects (HC), diluted 10-fold, peptide coated 50 ng/well, GAH-HRP secondary antibody) was “significantly elevated” and the “level of citrullinated SETDB1 autoantibodies” value (Example 4, Fig. 4A, serum of patients with different autoimmune diseases (RA, SLE, PSS, SSc)) was “the highest in rheumatoid arthritis”.

— patent EP4759821A1, “CITRULLINATED SETDB1 POLYPEPTIDE AND USE THEREOF IN DIAGNOSIS OF RHEUMATOID ARTHRITIS” (Xiamen University, priority 2023, dated 2025)
